Laboratory results as given in ChEMBL document CHEMBL5338813 (J Med Chem, 2023).
pEC50: −log10 of the molar value.

Key:
Cryptosporidium parvum = experiment: Antiparasitic activity against Cryptosporidium parvum infected in human HCT-8 cells assessed as parasitic growth inhibition incubated for 48 hrs by fluorescence microscopic analysis; format: functional, organism-based; conditions: HCT-8, 48 h
HCT-8 = experiment: Cytotoxicity against human HCT-8 cells assessed as reduction in cell number upto 50 uM incubated for 48 hrs by; format: toxicity, cell-based; conditions: hct-8, 48 h
[1] = molecular target: Voltage-gated inwardly rectifying potassium channel KCNH2 (Homo sapiens, UniProt Q12809); experiment: Displacement of [3H]Dofetilide from human ERG at 30 uM by automated patch clamp assay relative to control; conditions: 30 µM
Chain of Voltage-gated inwardly rectifying potassium channel KCNH2 (Q12809 whole entry): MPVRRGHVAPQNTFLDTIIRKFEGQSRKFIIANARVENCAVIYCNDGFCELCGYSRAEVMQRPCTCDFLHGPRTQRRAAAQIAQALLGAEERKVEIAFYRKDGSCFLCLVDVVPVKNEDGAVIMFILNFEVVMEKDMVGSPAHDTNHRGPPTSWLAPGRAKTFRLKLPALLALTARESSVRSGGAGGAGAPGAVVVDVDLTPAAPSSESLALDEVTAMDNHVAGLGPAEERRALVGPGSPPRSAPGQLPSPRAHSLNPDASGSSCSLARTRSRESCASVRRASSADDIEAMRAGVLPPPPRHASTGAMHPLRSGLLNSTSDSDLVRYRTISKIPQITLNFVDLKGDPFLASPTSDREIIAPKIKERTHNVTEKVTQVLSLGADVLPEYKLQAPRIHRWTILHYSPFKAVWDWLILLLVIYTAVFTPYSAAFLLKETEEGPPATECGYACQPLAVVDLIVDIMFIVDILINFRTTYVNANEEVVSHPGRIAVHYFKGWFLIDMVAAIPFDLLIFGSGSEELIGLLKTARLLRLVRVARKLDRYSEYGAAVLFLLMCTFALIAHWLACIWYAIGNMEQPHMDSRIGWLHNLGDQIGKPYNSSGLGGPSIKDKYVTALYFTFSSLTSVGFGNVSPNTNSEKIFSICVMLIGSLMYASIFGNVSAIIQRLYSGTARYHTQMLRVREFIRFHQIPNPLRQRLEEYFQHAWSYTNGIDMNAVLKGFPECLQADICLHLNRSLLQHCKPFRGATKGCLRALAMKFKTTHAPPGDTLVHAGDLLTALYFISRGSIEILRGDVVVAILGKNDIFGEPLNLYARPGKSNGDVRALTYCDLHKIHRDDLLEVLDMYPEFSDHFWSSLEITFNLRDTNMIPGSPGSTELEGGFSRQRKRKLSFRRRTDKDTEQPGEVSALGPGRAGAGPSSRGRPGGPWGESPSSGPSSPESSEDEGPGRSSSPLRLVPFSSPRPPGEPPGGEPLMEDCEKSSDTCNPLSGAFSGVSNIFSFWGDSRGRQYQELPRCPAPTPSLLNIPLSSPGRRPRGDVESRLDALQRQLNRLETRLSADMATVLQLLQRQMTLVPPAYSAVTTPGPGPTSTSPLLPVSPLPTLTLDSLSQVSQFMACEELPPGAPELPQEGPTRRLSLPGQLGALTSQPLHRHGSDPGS

Row | Structure (SMILES) | pEC50 (Cryptosporidium parvum) | Activity (HCT-8) | Activity [1]
1 | O=C(Cc1ccc(S(F)(F)(F)(F)F)cc1)N1CCN(c2ccc3nncn3n2)CC1 | 4.92 | Non-Toxic | 
2 | O=C(Cc1ccc(O)c(F)c1)N1CCN(c2ccc3nncn3n2)CC1 | 4.28 | Non-Toxic | 
3 | O=C(Cc1ccc(CO)cc1)N1CCN(c2ccc3nncn3n2)CC1 | < 4.60 | Non-Toxic | 
4 | O=C(Cc1ccc([N+](=O)[O-])c(F)c1)N1CCN(c2ccc3nncn3n2)CC1 | 4.60 | Non-Toxic | 
5 | O=C(Cc1ccc(O)cc1)N1CCN(c2ccc3nncn3n2)CC1 | < 4.30 | Non-Toxic | 
6 | N#Cc1cccc(CC(=O)N2CCN(c3ccc4nncn4n3)CC2)c1 | 4.42 | Non-Toxic | 
7 | O=C(Cc1ccc(Br)c(Cl)c1)N1CCN(c2ccc3nncn3n2)CC1 | 6.60 | Non-Toxic | 
8 | O=C(Cc1ccc([N+](=O)[O-])cc1)N1CCN(c2ccc3nncn3n2)CC1 |  | Non-Toxic | 
9 | COc1ccc(CC(=O)N2CCN(c3ccc4nncn4n3)CC2)cc1 |  | Non-Toxic | 
10 | Cc1ccccc1CC(=O)N1CCN(c2ccc3nncn3n2)CC1 | < 4.30 | Non-Toxic | 
11 | O=C(Cc1ccccc1F)N1CCN(c2ccc3nncn3n2)CC1 | < 4.22 | Non-Toxic | 
12 | O=C(Cc1cc(F)cc(F)c1)N1CCN(c2ccc3nncn3n2)CC1 | 5.24 | Non-Toxic | 
13 | N#Cc1cc(CC(=O)N2CCN(c3ccc4nncn4n3)CC2)ccc1F | 5.68 | Non-Toxic | 
14 | O=C(Cc1cc(Cl)cc(C(F)(F)F)c1)N1CCN(c2ccc3nncn3n2)CC1 | 6.39 | Non-Toxic | 
15 | O=C(Cc1cccc(Br)c1)N1CCN(c2ccc3nncn3n2)CC1 | 5.66 | Non-Toxic | 
16 | O=C(Cc1cc(Cl)ccc1Cl)N1CCN(c2ccc3nncn3n2)CC1 | 4.24 | Non-Toxic | 
17 | O=C(Cc1ccccc1Cl)N1CCN(c2ccc3nncn3n2)CC1 | < 4.60 | Non-Toxic | 
18 | O=C(Cc1ccc(F)c(O)c1)N1CCN(c2ccc3nncn3n2)CC1 | < 4.30 | Non-Toxic | 
19 | O=C(Cc1cc(F)cc(C(F)(F)F)c1)N1CCN(c2ccc3nncn3n2)CC1 | 5.77 | Non-Toxic | 
20 | Cc1ccc(CC(=O)N2CCN(c3ccc4nncn4n3)CC2)cc1F | 5.28 | Non-Toxic | 
21 | O=C(Cc1cccc(F)c1)N1CCN(c2ccc3nncn3n2)CC1 | 4.85 | Non-Toxic | 
22 | O=C(Cc1ccc(C(F)(F)F)cc1)N1CCN(c2ccc3nncn3n2)CC1 | 5.26 | Non-Toxic | 
23 | O=C(Cc1ccc(Cl)cc1Cl)N1CCN(c2ccc3nncn3n2)CC1 | < 4.60 | Non-Toxic | 

Row | Structure (SMILES) | pEC50 (Cryptosporidium parvum) | Activity (HCT-8) | Activity [1]
24 | N#Cc1ccc(CC(=O)N2CCN(c3ccc4nncn4n3)CC2)cc1 |  | Non-Toxic | 
25 | O=C(Cc1cccc(-c2ccccc2)c1)N1CCN(c2ccc3nncn3n2)CC1 | 4.60 | Non-Toxic | 
26 | O=C(Cc1cc(F)cc(Cl)c1)N1CCN(c2ccc3nncn3n2)CC1 | 6.06 | Non-Toxic | 
27 | O=C(Cc1cccc(C(F)(F)F)c1)N1CCN(c2ccc3nncn3n2)CC1 | 5.96 | Non-Toxic | 
28 | O=C(Cc1cc(F)c(F)c(F)c1)N1CCN(c2ccc3nncn3n2)CC1 | 6.40 | Non-Toxic | 
29 | Cc1ccc(CC(=O)N2CCN(c3ccc4nncn4n3)CC2)cc1Cl | 5.96 | Non-Toxic | 
30 | O=C(Cc1ccc(Cl)cc1)N1CCN(c2ccc3nncn3n2)CC1 |  | Non-Toxic | 
31 | O=C(Cc1ccc(F)c([N+](=O)[O-])c1)N1CCN(c2ccc3nncn3n2)CC1 | 6.21 | Non-Toxic | 
32 | O=C(Cc1cc(C(F)(F)F)cc(C(F)(F)F)c1)N1CCN(c2ccc3nncn3n2)CC1 | 6.49 | Non-Toxic | 54%
33 | O=C(Cc1c(Cl)cccc1Cl)N1CCN(c2ccc3nncn3n2)CC1 | < 4.60 | Non-Toxic | 
34 | O=C(Cc1ccc(C(F)(F)F)c(Cl)c1)N1CCN(c2ccc3nncn3n2)CC1 | 6.47 | Non-Toxic | 
35 | O=C(Cc1ccc(C(F)(F)F)c(F)c1)N1CCN(c2ccc3nncn3n2)CC1 | 5.70 | Non-Toxic | 
36 | O=C(Cc1ccc(Br)c(F)c1)N1CCN(c2ccc3nncn3n2)CC1 | 6.11 | Non-Toxic | 
37 | COc1cccc(CC(=O)N2CCN(c3ccc4nncn4n3)CC2)c1 |  | Non-Toxic | 
38 | O=C(Cc1ccc(F)c(Cl)c1)N1CCN(c2ccc3nncn3n2)CC1 | 6.62 | Non-Toxic | 
39 | Cc1cc(CC(=O)N2CCN(c3ccc4nncn4n3)CC2)cc(C(F)(F)F)c1F | 7.15 | Non-Toxic | 
40 | O=C(Cc1ccc(Cl)c(C(F)(F)F)c1)N1CCN(c2ccc3nncn3n2)CC1 | 6.57 | Non-Toxic | 
41 | O=C(Cc1cc(Cl)cc(Cl)c1)N1CCN(c2ccc3nncn3n2)CC1 | 5.92 | Non-Toxic | 
42 | O=C(Cc1ccc(F)c(OC(F)(F)F)c1)N1CCN(c2ccc3nncn3n2)CC1 | 6.17 | Non-Toxic | 
43 | O=C(Cc1ccc(F)c(Br)c1)N1CCN(c2ccc3nncn3n2)CC1 | 6.64 | Non-Toxic | 
44 | O=C(Cc1ccc(Br)cc1)N1CCN(c2ccc3nncn3n2)CC1 | 5.96 | Non-Toxic | 
45 | C#Cc1ccc(CC(=O)N2CCN(c3ccc4nncn4n3)CC2)cc1 | 6.06 | Non-Toxic | 
46 | Cc1cc(F)ccc1CC(=O)N1CCN(c2ccc3nncn3n2)CC1 | 4.66 | Non-Toxic | 

Row | Structure (SMILES) | pEC50 (Cryptosporidium parvum) | Activity (HCT-8) | Activity [1]
47 | O=C(Cc1ccccc1Br)N1CCN(c2ccc3nncn3n2)CC1 | < 4.30 | Non-Toxic | 
48 | Cc1cccc(CC(=O)N2CCN(c3ccc4nncn4n3)CC2)c1 | 4.92 | Non-Toxic | 
49 | Cc1cc(CC(=O)N2CCN(c3ccc4nncn4n3)CC2)ccc1F | 6.43 | Non-Toxic | 
50 | COc1cc(CC(=O)N2CCN(c3ccc4nncn4n3)CC2)ccc1F | 6.00 | Non-Toxic | 
51 | COc1ccc(CC(=O)N2CCN(c3ccc4nncn4n3)CC2)cc1F | 4.92 | Non-Toxic | 
52 | N#Cc1ccc(CC(=O)N2CCN(c3ccc4nncn4n3)CC2)cc1F | 5.80 | Non-Toxic | 
53 | O=C(Cc1ccc(F)cc1)N1CCN(c2ccc3nncn3n2)CC1 |  | Non-Toxic | 
54 | O=C(Cc1cccc(Cl)c1Cl)N1CCN(c2ccc3nncn3n2)CC1 | < 4.60 | Non-Toxic | 
55 | O=C(Cc1ccc(Cl)c(F)c1)N1CCN(c2ccc3nncn3n2)CC1 | 6.39 | Non-Toxic | 
56 | O=C(Cc1cccc(S(F)(F)(F)(F)F)c1)N1CCN(c2ccc3nncn3n2)CC1 | 5.96 | Non-Toxic | 
57 | O=C(Cc1cccc(C(F)(F)F)c1F)N1CCN(c2ccc3nncn3n2)CC1 | 4.21 | Non-Toxic | 
58 | O=C(Cc1ccc(F)c(F)c1)N1CCN(c2ccc3nncn3n2)CC1 | 6.12 | Non-Toxic | 
59 | Cc1ccc(CC(=O)N2CCN(c3ccc4nncn4n3)CC2)cc1 | 5.00 | Non-Toxic | 
60 | O=C(Cc1ccc(F)c(CO)c1)N1CCN(c2ccc3nncn3n2)CC1 | 4.77 | Non-Toxic | 
61 | O=C(Cc1ccc(-c2ccccc2)cc1)N1CCN(c2ccc3nncn3n2)CC1 | 4.25 | Non-Toxic | 
62 | O=C(Cc1ccc(Cl)c(Br)c1)N1CCN(c2ccc3nncn3n2)CC1 | 6.92 | Non-Toxic | 
63 | O=C(Cc1cccc(Cl)c1)N1CCN(c2ccc3nncn3n2)CC1 |  | Non-Toxic | 
64 | O=C(Cc1cc(C(F)(F)F)ccc1F)N1CCN(c2ccc3nncn3n2)CC1 | 4.82 | Non-Toxic | 
65 | O=C(Cc1cccc(O)c1)N1CCN(c2ccc3nncn3n2)CC1 | 4.47 | Non-Toxic | 
66 | O=C(Cc1cccc([N+](=O)[O-])c1)N1CCN(c2ccc3nncn3n2)CC1 | 4.74 | Non-Toxic | 
67 | Cc1cc(CC(=O)N2CCN(c3ccc4nncn4n3)CC2)ccc1Cl | 6.57 | Non-Toxic | 
